What is called viability is a read-out of living cells in per cent, often relative to untreated cells.

Four compounds from US20130337564A1, “Treatment of Pluripotent Cells” (Janssen Biotech, Inc., priority 2012, published 2013) can be followed below.

Several values for one entry are separate records, joined by “and”; a condition that tells them apart may be missing. Equal entries are not always repeated.

Format in all cases: cell-based
The test system of experiment [1] is cells expressing pluripotency markers derived from human embryonic stem cells. Put plainly: MTS viability (toxicity) assay of cells expressing pluripotency markers. On the set-up: Raw data (duplicate), first replicate / Average: unit not given here. The conditions noted are these: for % Control / viability at 10 µM: viability of cells expressing pluripotency markers, relative to control; for viability at 10 µM: Homo sapiens, Embryonic stem cell. As for the experimental part:
Derivation and maintenance of cells expressing pluripotency makers was conducted as has been described in Example 2. Cells were grown in DMEM:F12 supplemented with 2% FCS (Invitrogen), 100 ng/ml Activin A, 20 ng/ml Wnt-3a, and 50 ng/ml IGF (R&D Biosystems). Cells were seeded at a density of 10,000 cells/cm^2 on Falcon polystyrene flasks and grown in monolayer culture at 37° C., 5% CO2, low oxygen. After reaching 60-70% confluence, cells were passed by washing the monolayer with PBS and incubating with TrypLE (Invitrogen) for 3-5 minutes to allow detachment and single cell dispersal.
Screening was conducted using test compounds from a proprietary library of small molecules selected for their ability to inhibit GSK-3B enzyme activity. Compounds from this library were made available as 1 mM stocks, in a 96-well plate format in 50 mM HEPES, 30% DMSO. For assay, cells expressing pluripotency markers were washed, counted, and plated in normal culture medium at a seeding density of 20,000 cells per well in 96-well clear-bottom, dark-well plates (Costar). This seeding density was previously determined to yield optimal monolayer formation in overnight culture. On the following day, culture medium was removed, cell monolayers were rinsed three times with PBS, and test compounds were added to the wells in 80 μl aliquots, each diluted into assay medium at a final assay concentration of 10 μM. On day 2 of the assay, medium was removed from each well and replaced with a fresh aliquot of test compounds diluted into assay medium. Assay medium on days 1 and 2 of culture consisted of DMEM:F12 supplemented with 0.5% FCS and 100 ng/ml Activin A. On days 3 and 4 of culture, medium was removed from each well and replaced with DMEM:F12 supplemented with 2% FCS and 100 ng/ml Activin A (no test compound). On day 4 of assay, 15 μl of MTS (Promega) was added to each well and plates were incubated at 37° C. for 1.5 to 4 hours prior to reading optical density at 490 nm on a SpectraMax (Molecular Devices) instrument. Statistical measures consisting of mean, standard deviation, and coefficient of variation were calculated for each duplicate set. Toxicity was calculated for each test well relative to a positive control (wells treated with Activin A and Wnt3a on days 1 and 2 of culture).
A larger proportion of the compounds have minimal or no measurable toxicity in this cell-based assay.
A small panel of select compounds was repeat tested over a narrow dose titration range, again using cells expressing pluripotency markers in a similar assay as described above.

Experiment [2] deals with human embryonic stem cells (H9 line). Put plainly: High content screening assay: cell number (proliferative response). The protocol: (§1) Maintenance of human embryonic stem cells (H9 line) was conducted as described in Example 1. Colonies of cells were maintained in an undifferentiated, pluripotent state with passage on average every four days. Passage was performed by exposing cell cultures to a solution of collagenase (1 mg/ml; Sigma-Aldrich) for 10 to 30 minutes at 37° C. followed by gentle scraping with a pipette tip to recover cell clusters. Clusters were allowed to sediment by gravity, followed by washing to remove residual collagenase. Cell clusters were split at a 1:3 ratio for routine maintenance culture or a 1:1 ratio for immediate assay. The human embryonic stem cell lines used were maintained at passage numbers less than passage 50 and routinely evaluated for normal karyotypic phenotype and absence of mycoplasma contamination.
(§2) Cell clusters used in the assay were evenly resuspended in normal culture medium and plated onto MATRIGEL-coated 96-well Packard VIEWPLATES (PerkinElmer) in volumes of […]. MEF conditioned medium supplemented with 8 ng/ml bFGF was used for initial plating and recovery. Daily feeding was conducted by aspirating spent culture medium from each well and replacing with an equal volume of fresh medium. Plates were maintained at 37° C., 5% CO2 in a humidified box throughout the duration of assay.
(§3) Screening was conducted using test compounds from a proprietary library of small molecules selected for their ability to inhibit GSK-3B enzyme activity. Compounds from this library were made available as 1 mM stocks, in a 96-well plate format in 50 mM HEPES, 30% DMSO. Screening compounds were tested in triplicate or duplicate sets. Primary screening assays were initiated by aspirating culture medium from each well followed by three washes in PBS to remove residual growth factors and serum. Test volumes of 80 to 100 μl per well were added back containing DMEM:F12 base medium (Invitrogen) supplemented with 0.5% FCS (HyClone) and 100 ng/ml activin A (R&D Biosystems) plus 10 μM test compound. Positive control wells contained the same base medium, substituting 10-20 ng/ml Wnt3a (R&D Biosystems) for the test compound. Negative control wells contained base medium with 0.5% FCS and activin A alone (AA only) or alternatively, 0.5% FCS without activin A or Wnt3a (no treatment). Wells were aspirated and fed again with identical solutions on day 2 of assay. On days 3 and 4, all assay wells were aspirated and converted to DMEM:F12 supplemented with 2% FCS and 100 ng/ml activin A (without test compound or Wnt3a); parallel negative control wells were maintained in DMEM:F12 base medium with 2% FCS and activin A (AA only) or alternatively, 2% FCS without activin A (no treatment).
(§4) At the end of culture, cells in 96-well plates were fixed with 4% paraformaldehyde at room temperature for 20 minutes, washed three times with PBS, and then permeabilized with 0.5% Triton X-100 for 20 minutes at room temperature. Alternatively, cells were fixed with ice cold 70% ethanol overnight at −20° C., washed three times with PBS, and then permeabilized with Triton X-100 for 5 minutes at 4° C. After fixing and permeabilizing, cells were washed again three times with PBS and then blocked with 4% chicken serum (Invitrogen) in PBS for 30 minutes at room temperature. Primary antibodies (goat anti-human Sox17 and goat anti-human HNF-3beta; R&D Systems) were diluted 1:100 in 4% chicken serum and added to cells for one hour at room temperature. Alexa Fluor 488 conjugated secondary antibody (chicken anti-goat IgG; Molecular Probes) was diluted 1:200 in PBS and added after washing the cells three times with PBS. To counterstain nuclei, 5 mM Draq5 (Alexis Biochemicals) was added for five minutes at room temperature. Cells were washed once with PBS and left in […] PBS for imaging.
(§5) Cells were imaged using an IN Cell Analyzer 1000 (GE Healthcare) utilizing the 51008bs dichroic for cells stained with Draq5 and Alexa Fluor 488. […]

The subject of experiment [3] is Sox17 expression in human embryonic stem cells (H9 line). Put plainly: High content screening assay: Sox17 protein expression (differentiation). As for the experimental part: as §1, §2, §3, §4, §5
Experiment [4] deals with HNF-3beta expression in human embryonic stem cells (H9 line). Put plainly: High content screening assay: HNF-3beta protein expression (differentiation). As for the experimental part:
as §1, §2, §3, §4, §5

Experiment [5] has as its system human embryonic stem cells (H9 or H1 lines). Kind of experiment: Plate reader (MTS) proliferation assay. As for the experimental part: Maintenance of human embryonic stem cells (H9 or H1 lines) was conducted as described in Example 1. Colonies of cells were maintained in an undifferentiated, pluripotent state with passage on average every four days. Passage was performed by exposing cell cultures to a solution of collagenase (1 mg/ml; Sigma-Aldrich) for 10 to 30 minutes at 37° C. followed by gentle scraping with a pipette tip to recover cell clusters. Clusters were allowed to sediment and washed to remove residual collagenase. Cell clusters were split at a ratio of 1:3 monolayer area for routine culture or a 1:1 ratio for immediate assay. The human embryonis stem cell lines used for these examples were maintained at passage numbers less than 50 and routinely evaluated for normal karyotypic phenotype as well as absence of mycoplasm contamination.
Cell clusters used in assay were evenly resuspended in normal culture medium and plated into MATRIGEL-coated 96-well Packard VIEWPLATES (PerkinElmer) in volumes of 100 μl/well. MEF conditioned medium supplemented with 8 ng/ml bFGF) was used for initial plating and recovery. Daily feeding was conducted by aspirating spent culture medium from each well and replacing with an equal volume of fresh medium. Plates were maintained at 37° C. in a humidified box, 5% CO2 throughout the duration of assay.
Primary screening assays were initiated by aspirating culture medium from each well followed by three washes in PBS to remove residual growth factors and serum. Test volumes of 80-100 μl per well were added back containing DMEM:F12 base medium (Invitrogen) supplemented with 0.5% FCS (HyClone) and 100 ng/ml activin A (R&D Biosystems) and 10 μM test compound. Positive control wells contained the same medium substituting 10-20 ng/ml Wnt3a (R&D Biosystems). Negative control wells contained base medium with 0.5% FCS without activin A or Wnt3a. Screening compounds were tested in triplicate. Wells were aspirated and fed again with identical solutions on day 2 of the assay. On days 3 and 4, all assay wells were aspirated and converted to DMEM:F 12 supplemented with 2% FCS and 100 ng/ml activin A with the exception of negative control wells which were maintained in DMEM:F12 base medium with 2% FCS.
On day 4 of assay, 15-20 μl of MTS (Promega) was added to each well and plates were incubated at 37° C. for 1.5 to 4 hours. Densitometric readings at OD490 were determined using a Molecular Devices spectrophotometer plate reader. Average readings for replicate sets were calculated along with standard deviation and coefficient of variation. Experimental wells were compared to the Activin A/Wnt3a positive control to calculate a percent control value as a measure of proliferation.
Strong hits are defined as greater than or equal to 120% of control values; moderate hits are defined as falling within the interval of 60-120% of control values. A significant number of compounds induce a proliferative response in this assay.

The mark [6] stands for this setting: MTS viability assay raw reading, replicate 1.
Setting [7] is: MTS viability assay raw reading, replicate 2.
The mark [8] stands for this setting: average of duplicate MTS raw readings.
Where [9] appears, read: 10 μM test compound with 100 ng/ml activin A on days 1-2, H9, total intensity by IN Cell Analyzer, strong and moderate hits.
The mark [10] stands for this setting: total intensity normalised to Wnt 3a/AA control.

Consider `O=C1NC(=O)C2=C1c1cn(c3ncccc13)CCOCCOCCOCCn1cc2c2cccnc21` [Compound 2, 6,7,9,10,12,13,15,16-Octahydro-23H-5,26:17,22-di(metheno)dipyrido[2,3-k:3′,2′-q]pyrrolo[3,4-n][1,4,7,10,19]trioxadiazacyclohenicosine-23,25(24H)-dione], for which, in experiment [1] (setting [6]), the “Raw data (duplicate), first replicate” value came out at 0.785. Moreover, the “Raw data (duplicate), second replicate” value in experiment [1] (setting [7]) is on record as 0.790. Further, the Average in experiment [1] (setting [8]) was 0.788. For the same compound, in experiment [1], the “% Control” value came to 94.0%. In addition, the “Proliferative Response Fold over Wnt 3a/AA control” value is 1.3757 Fold over Wnt 3a/AA control and 1.1246 Fold over Wnt 3a/AA control in experiment [2] (10 μM test compound with 100 ng/ml activin A on days 1-2, H9, total cell number by IN Cell Analyzer, strong and moderate hits); 1.125 fold in experiment [2] (cell number in the wells analysed for HNF-3b expression, normalised to Wnt 3a/AA control); 1.376 fold in experiment [2] (cell number in the wells analysed for SOX-17 expression, normalised to Wnt 3a/AA control). Besides, the “Proliferative Response Total cells” value is recorded as 5679 in experiment [2] (cell number in the wells analysed for HNF-3b expression) and 10963 in experiment [2] (cell number in the wells analysed for SOX-17 expression). The “SOX17 Expression, Fold over Wnt 3a/AA control” value in experiment [3] (setting [9]) is reported as 0.7921 Fold over Wnt 3a/AA control. Also, the “SOX-17 Expression Total Intensity” value in experiment [3] (total intensity) is recorded as 296920000. In experiment [3] (setting [10]), the “SOX-17 Expression Fold over Wnt 3a/AA control” value was determined as 0.7921 fold. Further, in experiment [4] (setting [9]), the “HNF3β Expression, Fold over Wnt 3a/AA control” value is 1.0087 Fold over Wnt 3a/AA control. Moreover, the “HNF-3b Expression Total Intensity” value in experiment [4] was 463525000. For the same compound, the “HNF-3b Expression Fold over Wnt 3a/AA control” value in experiment [4] (setting [10]) was 1.0087 fold.

For the compound `O=C1NC(=O)C(c2nn(CCCO)c3ccccc23)=C1c1cn(-c2ccc3ccccc3c2)c2ncccc12` [Compound 19, 3-[1-(3-Hydroxypropyl)-1H-indazol-3-yl]-4-(1-naphthalen-2-yl-1H-pyrrolo[2,3-b]pyridin-3-yl)-1H-pyrrole-2,5-dione], the viability at 10 µM in experiment [1] is 85.2%. Moreover, the “HNF-3b Expression Total Intensity” value in experiment [4] is 0.

Consider `O=C1NC(=O)C2=C1c1cn(c3ccccc13)CCOCCOCCN(Cc1ccncc1)CCn1cc2c2ccccc21` [Compound 139, 14-(Pyridin-4-ylmethyl)-6,7,9,10,13,14,15,16-octahydro-12H,23H-5,26:17,22-di(metheno)dibenzo[k,q]pyrrolo[3,4-n][1,4,7,10,19]dioxatriazacyclohenicosine-23,25(24H)-dione], for which, in experiment [1] (setting [6]), the “Raw data (duplicate), first replicate” value is on record as 0.532. Besides, the “Raw data (duplicate), second replicate” value in experiment [1] (setting [7]) stood at 0.682. Besides, the Average in experiment [1] (setting [8]) came to 0.607; in experiment [5] (average of replicate raw data) it was 0.8650. Also, the “% Control” value in experiment [1] came to 78.3%. For the same compound, the “% Control Value (proliferation)” value in experiment [5] (10 μM test compound with 100 ng/ml activin A on days 1-2, MTS OD490 on day 4, vs Activin A/Wnt3a positive control, strong and moderate hits) is given as 115.5%. Besides, the “Raw Data” value in experiment [5] (replicate wells, plate reader proliferation screen of GSK-3B inhibitors) was 0.9184 and 0.8116.

`O=C1NC(=O)C(c2cn(CCCO)c3ncccc23)=C1c1cc[nH]c1` [Compound 242, 4-[1-(3-Hydroxypropyl)-1H-pyrrolo[2,3-b]pyridin-3-yl]-1H,1′H-3,3′-bipyrrole-2,5-dione] displayed a viability at 10 µM in experiment [1] of 71%. The Average in experiment [1] (MTS viability readout, average of duplicate raw data) worked out at 0.601. Further, the “Raw data (duplicate), first replicate” value in experiment [1] (MTS viability readout, raw value of replicate 1) is listed as 0.590. The “Raw data (duplicate), second replicate” value in experiment [1] (MTS viability readout, raw value of replicate 2) came out at 0.613. Also, the “Average (of Raw Data)” value in experiment [5] (plate reader raw signal, mean of replicate wells, proliferation of human embryonic stem cells) came out at 0.1152.
